Data taken from patent US6423718B1, “4,4-disubstituted-3,4-dihydro-2(1H)-quinazolinones useful as HIV reverse transcriptase inhibitors” (Bristol-Myers Squibb Pharma Company, priority 1997, dated 2002).
≈ marks a conversion by molar mass, not a printed value.

Tested on: HIV-1 (RF)
Assay: HIV RNA assay: microplate based compound evaluation in HIV-1 infected MT-2 cells (IC90)
Assay type: cell-based
Conditions: Human immunodeficiency virus 1, MT2, 72 h; HIV-1 (RF) infected MT-2 cells, 3 days of culture; virus dilutions selected to standardize the inoculum; read-out: IC90 value (concentration of compound required to reduce the HIV RNA level by 90%)
Procedure: Plasmid pDAB 72 containing both gag and pol sequences of BH10 (bp 113-1816) cloned into PTZ 19R was prepared according to Erickson-Viitanen et al. AIDS Research and Human Retroviruses 1989, 5, 577. The plasmid was linearized with Ban HI prior to the generation of in vitro RNA transcripts using the Riboprobe Gemini system II kit (Promega) with T7 RNA polymerase. Synthesized RNA was purified by treatment with RNase free DNAse (Promega), phenol-chloroform extraction, and ethanol precipitation. RNA transcripts were dissolved in water, and stored at −70° C. The concentration of RNA was determined from the A260.
Biotinylated capture probes were purified by HPLC after synthesis on an Applied Biosystems (Foster City, Calif.) DNA synthesizer by addition of biotin to the 5′ terminal end of the oligonucleotide, using the biotin-phosphoramidite reagent of Cocuzza, Tet. Lett. 1989, 30, 6287. […]
MT-2 and MT-4 cells were maintained in RPMI 1640 supplemented with 5% fetal calf serum (FCS) for MT-2 cells or 10% FCS for MT-4 cells, 2 mM L-glutamine and 50 μg/mL gentamycin, all from Gibco. […] Infectious titers of HIV-1 (RF) stocks were 1-3×10^7 PFU (plaque forming units)/mL as measured by plaque assay on MT-2 cells (see below). […]

IC90	SMILES
0.2 µg/mL (≈ 0.947 µM)	Nc1ccn([C@H]2CC[C@@H](CO)O2)c(=O)n1 [ddC, 2′,3′-dideoxycytidine]

Tested on: not given
Assay: not given
Conditions: not given

melting point	SMILES
208 °C	COc1ccc2c(c1)C(C#CC1CC1)(C(F)(F)F)NC(=O)N2 (racemic) [Example 6, (+/−)-4-Cyclopropylethynyl-6-methoxy-4-trifluoromethyl-3,4-dihydro-2(1H)-quinazolinone]
192 to 193 °C	CC(C)CCC1(C(F)(F)F)NC(=O)Nc2ccc(F)c(F)c21 (racemic) [Example 15, (+/−)-5,6-Difluoro-4-isopentyl-4-trifluoromethyl-3,4-dihydro-2(1H)-quinazolinone]
155 °C	O=C1Nc2ccc(F)cc2C(C#CC2CC2)(C(F)(F)F)N1 (racemic) [Example 17, (+/−)-4-Cyclopropylethynyl-6-fluoro-4-trifluoromethyl-3,4-dihydro-2(1H)-quinazolinone]
179 °C	CC(C)CCC1(C(F)(F)F)NC(=O)Nc2ccc(F)cc21 (racemic) [Example 22, (+/−)-6-Fluoro-4-isopentyl-4-trifluoromethyl-3,4-dihydro-2(1H)-quinazolinone]
198 °C	CCCCC1(C(F)(F)F)NC(=O)Nc2ccc(F)cc21 (racemic) [Example 24, (+/−)-4-Butyl-6-fluoro-4-trifluoromethyl-3,4-dihydro-2(1H)-quinazolinone]
98 °C	O=C1Nc2ccc(F)cc2C(CCc2ccccc2)(C(F)(F)F)N1 (racemic) [Example 25, (+/−)-6-Fluoro-4-phenylethyl-4-trifluoromethyl-3,4-dihydro-2(1H)-quinazolinone]
